Source: paper PMC1479381, “Uncharged isocoumarin-based inhibitors of urokinase-type plasminogen activator” (BMC Chemical Biology, 2006)
Where a name gives a salt, the structure may show the parent alone.

Columns and labels:
human uPA = biological target: T1, human uPA (Homo sapiens, UniProt P00749); experiment: Kinetic inhibition of human urokinase, Spectrozyme UK substrate, initial rates at 405 nm; assay type: biochemical; settings: for Ki: 0.1 M Tris, pH 8.8, 25°C, Spectrozyme UK 10 μM to 150 μM, read-out: Ki, dissociation constant for inhibition of human uPA; for fold improvement in Ki over compound 4d: compared with unsubstituted 4d
T1 construct: purchased Sigma/Aldrich, St. Louis, MO
Procedure: Human urokinase (Sigma/Aldrich, St. Louis, MO) and Spectrozyme UK (American Diagnostica, Stamford, CT) were used for the kinetic studies. Enzyme activity was routinely measured in 1 ml volumes of 0.1 M Tris, pH 8.8, Spectrozyme UK (10 μM to 150 μM) and 0.64 μg (3,770 units/mg protein) human urokinase. Reactions were monitored at 405 nm, 25°C, with a Perkin/Elmer Lambda S2 UV/vis spectrophotometer. Michaelis constants and Ki values were determined from initial rate data, measured at 8 to 10 substrate concentrations, by non-linear regression analysis with SigmaPlot's Enzyme Kinetics Module™ (Chicago, IL, USA).

In the case of `O=c1oc(OCCBr)c(Cl)c2ccc([N+](=O)[O-])cc12` [Compound 4a, 3-(2-Bromoethoxy)-4-chloro-7-nitro-1H-isochromen-1-one], the Ki (human uPA) is reported as 1800 ± 200 nM and the melting point is reported as 126 to 128 °C.
With `O=c1oc(OCCCBr)c(Cl)c2ccc([N+](=O)[O-])cc12` [Compound 4b, 3-(3-Bromopropoxy)-4-chloro-7-nitro-1H-isochromen-1-one] the Ki (human uPA) was 2400 ± 200 nM, the “fold improvement in Ki over compound 4d” value (human uPA) was 4 fold and the melting point was 131 to 134 °C.
Work on `O=c1oc(OCCBr)c(Cl)c2ccccc12` [Compound 4c, 3-(2-Bromoethoxy)-4-chloro-1H-isochromen-1-one] yielded a Ki (human uPA) of 14000 ± 1000 nM and a melting point of 81 to 82 °C.
In the case of `O=c1oc(OCCCBr)c(Cl)c2ccccc12` [Compound 4d, 3-(3-Bromopropoxy)-4-chloro-1H-isochromen-1-one], the Ki (human uPA) is reported as 9000 ± 1000 nM, the “type of inhibition of uPA” value (human uPA; kinetic studies) is reported as “simple competitive inhibition” and the melting point is reported as 95 to 97 °C.
With `O=c1oc(OCCCCBr)c(Cl)c2ccccc12` [Compound 4e, 3-(4-Bromobutoxy)-4-chloro-1H-isochromen-1-one] the Ki (human uPA) was 18000 ± 2000 nM and the melting point was 75 to 77 °C.
In the case of `Br.N=C(N)SCCOc1oc(=O)c2ccccc2c1Cl` [Compound 5c, 2-[2-(4-Chloro-1-oxo-1H-isochromen-3-yloxy)ethyl]isothiourea hydrobromide], the Ki (human uPA) is reported as 33 ± 4 nM and the melting point is reported as 168 to 170 °C.
With `Br.N=C(N)SCCCOc1oc(=O)c2ccccc2c1Cl` [Compound 5d, 2-[3-(4-Chloro-1-oxo-1H-isochromen-3-yloxy)propyl]isothiourea hydrobromide] the Ki (human uPA) was 55 ± 3 nM and the melting point was 159 to 163 °C.
With `N=C(N)SCCCCOc1oc(=O)c2ccccc2c1Cl` [Compound 5e, 2-[4-(4-Chloro-1-oxo-1H-isochromen-3-yloxy)butyl]isothiourea hydrobromide] the Ki (human uPA) was 140 ± 20 nM.
With `Nc1ccc2c(Cl)c(OCCBr)oc(=O)c2c1` [Compound 6a, 7-Amino-3-(2-bromoethoxy)-4-chloro-1H-isochromen-1-one] the Ki (human uPA) was 12000 ± 1000 nM and the melting point was 134 to 136 °C.
For `Nc1ccc2c(Cl)c(OCCCBr)oc(=O)c2c1` [Compound 6b, 7-Amino-3-(3-bromopropoxy)-4-chloro-1H-isochromen-1-one], the Ki (human uPA) was 9500 ± 1000 nM and the melting point was 106 to 107 °C.
For `N=C(N)SCCOc1oc(=O)c2cc(N)ccc2c1Cl` [Compound 7a, 2-[2-(7-amino-4-chloro-1-oxo-1H-isochromen-3-yloxy)ethyl]isothiourea hydrobromide], the Ki (human uPA) was 20 ± 3 nM.
With `Br.N=C(N)SCCCOc1oc(=O)c2cc(N)ccc2c1Cl` [Compound 7b, 2-[3-(7-Amino-4-chloro-1-oxo-1H-isochromen-3-yloxy)propyl]isothiourea hydrobromide] the Ki (human uPA) was 38 ± 5 nM and the melting point was 173 °C.
Compound `O=C(Nc1ccc2c(Cl)c(OCCBr)oc(=O)c2c1)c1ccccc1` [Compound 8a, N-[3-(2-Bromoethoxy)-4-chloro-1-oxo-1H-isochromen-7-yl]benzamide] has a Ki (human uPA) of 1400 ± 200 nM and a melting point of 214 to 216 °C.
In the case of `O=C(Nc1ccc2c(Cl)c(OCCCBr)oc(=O)c2c1)c1ccccc1` [Compound 8b, N-[3-(3-Bromopropoxy)-4-chloro-1-oxo-1H-isochromen-7-yl]benzamide], the Ki (human uPA) is reported as 34 ± 2 nM, the “fold improvement in Ki over compound 4d” value (human uPA) is reported as 300 fold and the melting point is reported as 193 to 194 °C.
With `Br.N=C(N)SCCOc1oc(=O)c2cc(NC(=O)c3ccccc3)ccc2c1Cl` [Compound 9a, 2-[2-(7-Benzamido-4-chloro-1-oxo-1H-isochromen-3-yloxy)ethyl]isothiourea hydrobromide] the Ki (human uPA) was 84 ± 7 nM and the melting point was 173 to 175 °C.
With `Br.N=C(N)SCCCOc1oc(=O)c2cc(NC(=O)c3ccccc3)ccc2c1Cl` [Compound 9b, 2-[3-(7-Benzamido-4-chloro-1-oxo-1H-isochromen-3-yloxy]propyl)isothiourea hydrobromide] the Ki (human uPA) was 10 ± 8 nM and the melting point was 203 to 204 °C.
In the case of `O=c1oc(OCCBr)cc2ccc([N+](=O)[O-])cc12` [Compound 10a, 3-(2-Bromoethoxy)-7-nitro-1H-isochromen-1-one], the Ki (human uPA) is reported as 4200 ± 400 nM and the melting point is reported as 95 to 97 °C.
In the case of `O=c1oc(OCCCBr)cc2ccc([N+](=O)[O-])cc12` [Compound 10b, 3-(3-Bromopropoxy)-7-nitro-1H-isochromen-1-one], the Ki (human uPA) is reported as 4300 ± 300 nM and the melting point is reported as 117 to 118 °C.
With `O=C(c1c(OCCCBr)oc(=O)c2ccccc12)C(F)(F)F` [Compound 10c, 3-(3-Bromopropoxy)-4-trifluoroacetyl-1H-isochromen-1-one] the Ki (human uPA) was 14000 ± 2000 nM and the melting point was 116 to 117 °C.
In the case of `Nc1ccc2cc(OCCBr)oc(=O)c2c1` [Compound 11, 7-Amino-3-(2-bromoethoxy)-1H-isochromen-1-one], the Ki (human uPA) is reported as 65000 ± 9000 nM and the melting point is reported as > 280 °C.
